Laboratory results: US11807835B2, “Detergent compositions containing a stabilized enzyme by phosphonates” (ECOLAB USA INC., priority 2016, dated 2023)

Assays:
Assay type in all cases: biochemical
[1] = tested on: enzyme (protease, amylase, lipase); experiment: Overall effects of phosphonates on enzyme activity (Table 3); conditions: overall effect of the phosphonate on enzyme activity in the detergent use solution
In short: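 Protease, amylase and lipase activity in detergent use solutions with varied phosphonate levels, 4000 ppm in 5 GPG water at 120° F., sampled up to 4 h and frozen at −80° C. before assay. Activity given as % retention relative to t=0 (100%).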

lipase = experiment: Lipase activity retention in detergent use solution (4000 ppm, 5 GPG water; p-nitrophenyl valerate, TRIS buffer pH 8.0); conditions: base formula
In short: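 Lipase stability was measured in a detergent use solution under conditions mimicking presoak or manual warewash, with stirring in a water bath. Aliquots were taken over time and flash-frozen. Thawed samples were diluted in TRIS buffer at pH 8.0 and assayed with p-nitrophenyl valerate as substrate on a plate reader. Activity is reported as % retained relative to the time=0 sample.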

amylase = experiment: Amylase activity retention in detergent use solution (4000 ppm, 5 GPG water; ethylidene substrate EPS, HEPES buffer pH 8.0); conditions: base formula
In short: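 Detergent use solution at 4000 ppm in 5 GPG water held at 120° F.; aliquots taken up to 4 h, flash-frozen, then assayed with p-nitrophenyl valerate in TRIS pH 8.0 (lipase) or EPS substrate in HEPES pH 8.0 (amylase). Retention given as % activity relative to t=0.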

[2] = phosphonate 0.6 wt-%, use solution at 120º F., time 0 min
[3] = phosphonate 0.6 wt-%, use solution at 120º F., time 5 min
[4] = phosphonate 0.6 wt-%, use solution at 120º F., time 10 min
[5] = phosphonate 0.6 wt-%, use solution at 120º F., time 20 min
[6] = phosphonate 0.6 wt-%, use solution at 120º F., time 40 min
[7] = phosphonate 0.6 wt-%, use solution at 120º F., time 60 min
[8] = phosphonate 0.6 wt-%, use solution at 120º F., time 90 min
[9] = phosphonate 0.6 wt-%, use solution at 120º F., time 120 min
[10] = phosphonate 0.6 wt-%, use solution at 120º F., time 150 min
[11] = phosphonate 0.6 wt-%, use solution at 120º F., time 180 min
[12] = phosphonate 0.6 wt-%, use solution at 120º F., time 210 min
[13] = phosphonate 0.6 wt-%, use solution at 120º F., time 240 min
[14] = phosphonate at 0.1% elemental phosphorus, at 120º F. or at room temperature (as titled), time 0 min
[15] = phosphonate at 0.1% elemental phosphorus, at 120º F. or at room temperature (as titled), time 5 min
[16] = phosphonate at 0.1% elemental phosphorus, at 120º F. or at room temperature (as titled), time 10 min
[17] = phosphonate at 0.1% elemental phosphorus, at 120º F. or at room temperature (as titled), time 20 min
[18] = phosphonate at 0.1% elemental phosphorus, at 120º F. or at room temperature (as titled), time 40 min
[19] = phosphonate at 0.1% elemental phosphorus, at 120º F. or at room temperature (as titled), time 60 min
[20] = phosphonate at 0.1% elemental phosphorus, at 120º F. or at room temperature (as titled), time 90 min
[21] = phosphonate at 0.1% elemental phosphorus, at 120º F. or at room temperature (as titled), time 120 min
[22] = phosphonate at 0.1% elemental phosphorus, at 120º F. or at room temperature (as titled), time 150 min
[23] = phosphonate at 0.1% elemental phosphorus, at 120º F. or at room temperature (as titled), time 180 min
[24] = phosphonate at 0.1% elemental phosphorus, at 120º F. or at room temperature (as titled), time 210 min
[25] = phosphonate at 0.1% elemental phosphorus, at 120º F. or at room temperature (as titled), time 240 min
[26] = phosphonate 0.3 wt-%, use solution at 120° F., time 0 min
[27] = phosphonate 0.3 wt-%, use solution at 120° F., time 5 min
[28] = phosphonate 0.3 wt-%, use solution at 120° F., time 10 min
[29] = phosphonate 0.3 wt-%, use solution at 120° F., time 20 min
[30] = phosphonate 0.3 wt-%, use solution at 120° F., time 40 min
[31] = phosphonate 0.3 wt-%, use solution at 120° F., time 60 min
[32] = phosphonate 0.3 wt-%, use solution at 120° F., time 90 min
[33] = phosphonate 0.3 wt-%, use solution at 120° F., time 120 min
[34] = phosphonate 0.3 wt-%, use solution at 120° F., time 150 min
[35] = phosphonate 0.3 wt-%, use solution at 120° F., time 180 min
[36] = phosphonate 0.3 wt-%, use solution at 120° F., time 210 min
[37] = phosphonate 0.3 wt-%, use solution at 120° F., time 240 min
[38] = phosphonate at 0.1% elemental phosphorus level, use solution at 120º F., time 0 min
[39] = phosphonate at 0.1% elemental phosphorus level, use solution at 120º F., time 5 min
[40] = phosphonate at 0.1% elemental phosphorus level, use solution at 120º F., time 10 min
[41] = phosphonate at 0.1% elemental phosphorus level, use solution at 120º F., time 20 min
[42] = phosphonate at 0.1% elemental phosphorus level, use solution at 120º F., time 40 min
[43] = phosphonate at 0.1% elemental phosphorus level, use solution at 120º F., time 60 min
[44] = phosphonate at 0.1% elemental phosphorus level, use solution at 120º F., time 90 min
[45] = phosphonate at 0.1% elemental phosphorus level, use solution at 120º F., time 120 min
[46] = phosphonate at 0.1% elemental phosphorus level, use solution at 120º F., time 150 min
[47] = phosphonate at 0.1% elemental phosphorus level, use solution at 120º F., time 180 min
[48] = phosphonate at 0.1% elemental phosphorus level, use solution at 120º F., time 210 min
[49] = phosphonate at 0.1% elemental phosphorus level, use solution at 120º F., time 240 min

## NCP(=O)(O)O [AMPA, Aminomethyl phosphonic acid]
[1]
  Stability (effects on enzyme activity): Yes
lipase; [2]
  Relative Lipase Enzyme Activity: 100.00%
lipase; [3]
  Relative Lipase Enzyme Activity: 80.17%
lipase; [4]
  Relative Lipase Enzyme Activity: 64.48%
lipase; [5]
  Relative Lipase Enzyme Activity: 49.45%
lipase; [6]
  Relative Lipase Enzyme Activity: 37.77%
lipase; [7]
  Relative Lipase Enzyme Activity: 26.82%
lipase; [8]
  Relative Lipase Enzyme Activity: 19.59%
lipase; [9]
  Relative Lipase Enzyme Activity: 15.84%
lipase; [10]
  Relative Lipase Enzyme Activity: 15.01%
lipase; [11]
  Relative Lipase Enzyme Activity: 13.23%
lipase; [12]
  Relative Lipase Enzyme Activity: 12.05%
lipase; [13]
  Relative Lipase Enzyme Activity: 11.16%
lipase; [14]
  Relative Lipase Enzyme Activity: 100.00%
lipase; [15]
  Relative Lipase Enzyme Activity: 79.03%
lipase; [16]
  Relative Lipase Enzyme Activity: 77.51%
lipase; [17]
  Relative Lipase Enzyme Activity: 62.55%
lipase; [18]
  Relative Lipase Enzyme Activity: 53.26%
lipase; [19]
  Relative Lipase Enzyme Activity: 44.19%
lipase; [20]
  Relative Lipase Enzyme Activity: 33.99%
lipase; [21]
  Relative Lipase Enzyme Activity: 28.67%
lipase; [22]
  Relative Lipase Enzyme Activity: 23.85%
lipase; [23]
  Relative Lipase Enzyme Activity: 16.98%
lipase; [24]
  Relative Lipase Enzyme Activity: 17.74%
lipase; [25]
  Relative Lipase Enzyme Activity: 16.10%
amylase; [26]
  Relative Amylase Enzyme Activity: 82.13%
amylase; [27]
  Relative Amylase Enzyme Activity: 100.00%
amylase; [28]
  Relative Amylase Enzyme Activity: 95.55%
amylase; [29]
  Relative Amylase Enzyme Activity: 101.29%
amylase; [30]
  Relative Amylase Enzyme Activity: 80.17%
amylase; [31]
  Relative Amylase Enzyme Activity: 80.10%
amylase; [32]
  Relative Amylase Enzyme Activity: 87.43%
amylase; [33]
  Relative Amylase Enzyme Activity: 92.65%
amylase; [34]
  Relative Amylase Enzyme Activity: 93.49%
amylase; [35]
  Relative Amylase Enzyme Activity: 102.37%
amylase; [36]
  Relative Amylase Enzyme Activity: 103.78%
amylase; [37]
  Relative Amylase Enzyme Activity: 102.93%
amylase; [2]
  Relative Amylase Enzyme Activity: 100.00%
amylase; [3]
  Relative Amylase Enzyme Activity: 91.80%
amylase; [4]
  Relative Amylase Enzyme Activity: 92.54%
amylase; [5]
  Relative Amylase Enzyme Activity: 85.05%
amylase; [6]
  Relative Amylase Enzyme Activity: 94.06%
amylase; [7]
  Relative Amylase Enzyme Activity: 86.14%
amylase; [8]
  Relative Amylase Enzyme Activity: 90.32%
amylase; [9]
  Relative Amylase Enzyme Activity: 93.67%
amylase; [10]
  Relative Amylase Enzyme Activity: 92.05%
amylase; [11]
  Relative Amylase Enzyme Activity: 81.43%
amylase; [12]
  Relative Amylase Enzyme Activity: 94.06%
amylase; [13]
  Relative Amylase Enzyme Activity: 81.87%
amylase; [38]
  Relative Amylase Enzyme Activity: 97.43%
amylase; [39]
  Relative Amylase Enzyme Activity: 100.00%
amylase; [40]
  Relative Amylase Enzyme Activity: 102.34%
amylase; [41]
  Relative Amylase Enzyme Activity: 105.43%
amylase; [42]
  Relative Amylase Enzyme Activity: 92.18%
amylase; [43]
  Relative Amylase Enzyme Activity: 92.23%
amylase; [44]
  Relative Amylase Enzyme Activity: 96.88%
amylase; [45]
  Relative Amylase Enzyme Activity: 92.96%
amylase; [46]
  Relative Amylase Enzyme Activity: 103.38%
amylase; [47]
  Relative Amylase Enzyme Activity: 102.05%
amylase; [48]
  Relative Amylase Enzyme Activity: 91.32%
amylase; [49]
  Relative Amylase Enzyme Activity: 99.25%

## Polyamino Polyether Methylene Phosphonic Acid [PAPEMP]
[1]
  Stability (effects on enzyme activity): Yes
lipase; [26]
  Relative Lipase Enzyme Activity: 49.99%
lipase; [27]
  Relative Lipase Enzyme Activity: 100.00%
lipase; [28]
  Relative Lipase Enzyme Activity: 92.85%
lipase; [29]
  Relative Lipase Enzyme Activity: 77.81%
lipase; [30]
  Relative Lipase Enzyme Activity: 54.24%
lipase; [31]
  Relative Lipase Enzyme Activity: 51.08%
lipase; [32]
  Relative Lipase Enzyme Activity: 45.80%
lipase; [33]
  Relative Lipase Enzyme Activity: 36.29%
lipase; [34]
  Relative Lipase Enzyme Activity: 33.14%
lipase; [35]
  Relative Lipase Enzyme Activity: 28.25%
lipase; [36]
  Relative Lipase Enzyme Activity: 26.56%
lipase; [37]
  Relative Lipase Enzyme Activity: 24.03%
lipase; [2]
  Relative Lipase Enzyme Activity: 100.00%
lipase; [3]
  Relative Lipase Enzyme Activity: 86.04%
lipase; [4]
  Relative Lipase Enzyme Activity: 83.42%
lipase; [5]
  Relative Lipase Enzyme Activity: 73.22%
lipase; [6]
  Relative Lipase Enzyme Activity: 64.86%
lipase; [7]
  Relative Lipase Enzyme Activity: 59.26%
lipase; [8]
  Relative Lipase Enzyme Activity: 47.33%
lipase; [9]
  Relative Lipase Enzyme Activity: 42.05%
lipase; [10]
  Relative Lipase Enzyme Activity: 38.58%
lipase; [11]
  Relative Lipase Enzyme Activity: 29.04%
lipase; [12]
  Relative Lipase Enzyme Activity: 31.37%
lipase; [13]
  Relative Lipase Enzyme Activity: 29.77%
lipase; [14]
  Relative Lipase Enzyme Activity: 100.00%
lipase; [15]
  Relative Lipase Enzyme Activity: 91.09%
lipase; [16]
  Relative Lipase Enzyme Activity: 83.66%
lipase; [17]
  Relative Lipase Enzyme Activity: 75.51%
lipase; [18]
  Relative Lipase Enzyme Activity: 58.49%
lipase; [19]
  Relative Lipase Enzyme Activity: 54.87%
lipase; [20]
  Relative Lipase Enzyme Activity: 48.29%
lipase; [21]
  Relative Lipase Enzyme Activity: 42.46%
lipase; [22]
  Relative Lipase Enzyme Activity: 38.07%
lipase; [23]
  Relative Lipase Enzyme Activity: 33.57%
lipase; [24]
  Relative Lipase Enzyme Activity: 31.15%
lipase; [25]
  Relative Lipase Enzyme Activity: 31.01%
amylase; [26]
  Relative Amylase Enzyme Activity: 45.92%
amylase; [27]
  Relative Amylase Enzyme Activity: 100.00%
amylase; [28]
  Relative Amylase Enzyme Activity: 101.33%
amylase; [29]
  Relative Amylase Enzyme Activity: 101.28%
amylase; [30]
  Relative Amylase Enzyme Activity: 89.91%
amylase; [31]
  Relative Amylase Enzyme Activity: 93.07%
amylase; [32]
  Relative Amylase Enzyme Activity: 89.58%
amylase; [33]
  Relative Amylase Enzyme Activity: 89.74%
amylase; [34]
  Relative Amylase Enzyme Activity: 92.85%
amylase; [35]
  Relative Amylase Enzyme Activity: 87.45%
amylase; [36]
  Relative Amylase Enzyme Activity: 93.95%
amylase; [37]
  Relative Amylase Enzyme Activity: 108.16%
amylase; [2]
  Relative Amylase Enzyme Activity: 100.00%
amylase; [3]
  Relative Amylase Enzyme Activity: 91.71%
amylase; [4]
  Relative Amylase Enzyme Activity: 99.05%
amylase; [5]
  Relative Amylase Enzyme Activity: 94.55%
amylase; [6]
  Relative Amylase Enzyme Activity: 97.22%
amylase; [7]
  Relative Amylase Enzyme Activity: 97.94%
amylase; [8]
  Relative Amylase Enzyme Activity: 101.28%
amylase; [9]
  Relative Amylase Enzyme Activity: 99.25%
amylase; [10]
  Relative Amylase Enzyme Activity: 105.34%
amylase; [11]
  Relative Amylase Enzyme Activity: 98.44%
amylase; [12]
  Relative Amylase Enzyme Activity: 101.64%
amylase; [13]
  Relative Amylase Enzyme Activity: 96.02%
amylase; [38]
  Relative Amylase Enzyme Activity: 100.00%
amylase; [39]
  Relative Amylase Enzyme Activity: 85.10%
amylase; [40]
  Relative Amylase Enzyme Activity: 95.50%
amylase; [41]
  Relative Amylase Enzyme Activity: 96.02%
amylase; [42]
  Relative Amylase Enzyme Activity: 91.46%
amylase; [43]
  Relative Amylase Enzyme Activity: 97.42%
amylase; [44]
  Relative Amylase Enzyme Activity: 89.60%
amylase; [45]
  Relative Amylase Enzyme Activity: 99.26%
amylase; [46]
  Relative Amylase Enzyme Activity: 101.88%
amylase; [47]
  Relative Amylase Enzyme Activity: 91.85%
amylase; [48]
  Relative Amylase Enzyme Activity: 99.00%
amylase; [49]
  Relative Amylase Enzyme Activity: 96.59%
